Results from article PMC3744640 (Bioorganic & medicinal chemistry letters, 2013).
“Also recorded” adds a separate entry of the source.

Assays:
HepG2 = assay: growth inhibition of HepG2 liver carcinoma cells; format: cell-based; conditions: up to 100 μM
Huh-7 = assay: growth inhibition of Huh-7 liver carcinoma cells; format: cell-based; conditions: up to 100 μM
VEGFR-2 = VEGFR-2 (Homo sapiens, UniProt P35968); assay: VEGFR-2 inhibition at a single concentration; format: biochemical; conditions: 10 μM concentration of test compound
C-RAF = C-RAF (Homo sapiens, UniProt P04049); assay: C-RAF kinase inhibition; format: biochemical; conditions: compared with t-CUPM
10 recombinant kinases = conditions: 10 μM concentration
[1] = tested on: lipopolysaccharide-induced inflammation; conditions: lipopolysaccharide-induced inflammation murine model; cited from earlier work

VEGFR-2, sequence (P35968 20-1356): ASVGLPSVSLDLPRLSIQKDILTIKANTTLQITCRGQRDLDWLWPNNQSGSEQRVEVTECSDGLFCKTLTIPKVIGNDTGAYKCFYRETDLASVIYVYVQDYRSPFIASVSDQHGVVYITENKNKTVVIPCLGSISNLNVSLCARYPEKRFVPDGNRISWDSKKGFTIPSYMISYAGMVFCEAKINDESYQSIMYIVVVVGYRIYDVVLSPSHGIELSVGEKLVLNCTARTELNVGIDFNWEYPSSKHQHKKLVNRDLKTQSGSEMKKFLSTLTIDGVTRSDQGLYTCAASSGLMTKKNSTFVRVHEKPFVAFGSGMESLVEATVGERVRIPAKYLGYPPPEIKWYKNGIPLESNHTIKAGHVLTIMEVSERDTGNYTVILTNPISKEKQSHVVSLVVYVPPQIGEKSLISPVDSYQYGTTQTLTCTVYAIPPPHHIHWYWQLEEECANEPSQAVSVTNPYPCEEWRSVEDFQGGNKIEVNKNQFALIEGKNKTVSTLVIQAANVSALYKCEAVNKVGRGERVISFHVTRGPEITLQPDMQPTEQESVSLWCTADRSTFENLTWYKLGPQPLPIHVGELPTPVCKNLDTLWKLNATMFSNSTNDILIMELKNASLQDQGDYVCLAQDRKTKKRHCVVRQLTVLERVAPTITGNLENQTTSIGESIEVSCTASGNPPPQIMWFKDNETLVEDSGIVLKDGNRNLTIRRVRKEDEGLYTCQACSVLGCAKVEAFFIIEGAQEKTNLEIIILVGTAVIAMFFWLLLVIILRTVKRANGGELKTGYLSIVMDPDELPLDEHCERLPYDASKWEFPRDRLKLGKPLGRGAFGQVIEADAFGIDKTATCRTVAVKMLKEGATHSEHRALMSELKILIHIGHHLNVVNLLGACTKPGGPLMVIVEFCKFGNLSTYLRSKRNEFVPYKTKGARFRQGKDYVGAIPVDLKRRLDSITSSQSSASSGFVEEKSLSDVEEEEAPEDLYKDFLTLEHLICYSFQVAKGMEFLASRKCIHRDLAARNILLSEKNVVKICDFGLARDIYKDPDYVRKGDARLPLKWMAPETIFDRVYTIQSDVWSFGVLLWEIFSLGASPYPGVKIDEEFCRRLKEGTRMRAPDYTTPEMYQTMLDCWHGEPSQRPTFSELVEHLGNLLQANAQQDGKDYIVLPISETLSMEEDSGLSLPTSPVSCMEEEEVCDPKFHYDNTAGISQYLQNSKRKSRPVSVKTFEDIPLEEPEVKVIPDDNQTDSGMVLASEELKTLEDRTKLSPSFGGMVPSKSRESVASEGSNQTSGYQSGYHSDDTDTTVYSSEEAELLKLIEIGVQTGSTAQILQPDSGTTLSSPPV
C-RAF, sequence (P04049 whole entry): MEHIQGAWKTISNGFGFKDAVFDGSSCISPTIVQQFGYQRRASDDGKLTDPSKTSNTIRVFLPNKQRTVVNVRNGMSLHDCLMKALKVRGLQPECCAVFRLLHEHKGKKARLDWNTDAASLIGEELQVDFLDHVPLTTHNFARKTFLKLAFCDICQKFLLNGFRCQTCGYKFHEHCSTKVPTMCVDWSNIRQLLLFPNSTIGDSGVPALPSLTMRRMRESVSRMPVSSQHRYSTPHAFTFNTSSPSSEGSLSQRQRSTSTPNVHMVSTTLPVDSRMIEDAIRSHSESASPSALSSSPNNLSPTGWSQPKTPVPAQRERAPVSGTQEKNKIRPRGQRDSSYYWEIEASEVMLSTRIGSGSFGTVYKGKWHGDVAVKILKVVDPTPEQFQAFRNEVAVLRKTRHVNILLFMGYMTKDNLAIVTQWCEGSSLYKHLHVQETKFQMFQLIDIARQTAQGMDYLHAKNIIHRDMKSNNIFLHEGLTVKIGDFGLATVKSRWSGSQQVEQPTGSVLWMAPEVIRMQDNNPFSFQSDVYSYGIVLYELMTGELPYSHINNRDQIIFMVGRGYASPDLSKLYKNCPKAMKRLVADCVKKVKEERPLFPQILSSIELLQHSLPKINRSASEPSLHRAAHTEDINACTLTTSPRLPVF

Row | Percent inhibition against VEGFR-2 (in words) (VEGFR-2) | Structure (SMILES) | other results
1 | – | CS(=O)(=O)N1CCC(NC(=O)Nc2ccc(OC(F)(F)F)cc2)CC1 [TUPS] | effect on cell viability (in words) (HepG2): no observable effects on cell viability; effect on cell viability (in words) (Huh-7): no observable effects on cell viability
2 | displayed potency towards VEGFR-2 | CNC(=O)c1cc(O[C@H]2CC[C@H](NC(=O)Nc3ccc(Cl)c(C(F)(F)F)c3)CC2)ccn1 [compound 4, trans-4-{4-[3-(4-chloro-3-trifluoromethyl-phenyl)-ureido]-cyclohexyloxy}-pyridine-2-carboxylic acid methylamide] | –
3 | lack of VEGFR-2 inhibition | O=C(Nc1ccc(Cl)c(C(F)(F)F)c1)N[C@H]1CC[C@H](Oc2cccc(C(=O)O)c2)CC1 [compound 7, trans-3-{4-[3-(4-chloro-3-trifluoromethyl-phenyl)-ureido]-cyclohexyloxy}-benzoic acid] | –
4 | – | CNC(=O)c1cccc(O[C@H]2CC[C@H](NC(=O)Nc3ccc(Cl)c(C(F)(F)F)c3)CC2)c1 [compound 8] | Percent inhibition against VEGFR-2 (in words) (VEGFR-2; 10 µM): little inhibitory activity; also recorded: lack of VEGFR-2 inhibition
5 | displayed potency towards VEGFR-2 | CNC(=O)c1ccc(O[C@H]2CC[C@H](NC(=O)Nc3ccc(Cl)c(C(F)(F)F)c3)CC2)cn1 [compound 9] | fold less activity against C-RAF relative to t-CUPM (C-RAF): 2.3 fold
6 | – | O=C(Nc1ccc(OC(F)(F)F)cc1)N[C@H]1CC[C@H](Oc2ccc(C(=O)O)cc2)CC1 [compound 12, trans-4-{4-[3-(4-trifluoromethoxy-phenyl)-ureido]-cyclohexyloxy}-benzoic acid] | multi-kinase inhibition (in words) (10 recombinant kinases): no significant multi-kinase inhibition
7 | lack of VEGFR-2 inhibition | CNC(=O)c1cc(O[C@H]2CC[C@@H](NC(=O)Nc3ccc(Cl)c(C(F)(F)F)c3)CC2)ccn1 [compound 17] | –
8 | displayed potency towards VEGFR-2 | CNC(=O)c1cc(Oc2ccc(NC(=O)NC34CC5CC(CC(C5)C3)C4)cc2)ccn1 [compound 21] | –
9 | displayed potency towards VEGFR-2 | CNC(=O)c1cc(Oc2ccc(NC(=O)Nc3ccc(OC(F)(F)F)cc3)cc2)ccn1 [compound 22] | –
10 | – | CNC(=O)c1cc(Oc2ccc(NC(=O)Nc3ccc(Cl)c(C(F)(F)F)c3)cc2)ccn1 [sorafenib] | anti-inflammatory response (in words) [1]: exhibits similar anti-inflammatory responses as conventional sEH inhibitors
